In data set [1] the test system is S. cerevisiae. As to the kind of experiment: Toxicity of intermediates: growth of S. cerevisiae CEN.PK. The data set is classed as cell-based. To be noted: growth of CEN.PK transformants. The text has this: The effect on S. cerevisiae vitality of geranyl geranyl pyrophosphate (GGPP), ent-copalyl diphosphate (CDP) or ent-kaurene production was investigated by expression of Synechococcus sp GGPPS alone (GGPP production), the GGPPS and the 50 amino acid N-terminally truncated Zea mays CDPS (see Example 16) together (CDP production), or the GGPPS, truncated CDPS and the Arabidopsis thaliana kaurene synthase (KS5) together (ent kaurene production) in the laboratory S. cerevisiae strain CEN.PK background. Genes were expressed from 2μ plasmids with GPD promoters driving transcription of truncated CDPS and KS5, while transcription of the GGPPS was driven by the ADH1 promoter. The growth of S. cerevisiae CEN.PK transformed with various combinations of these plasmids (GGPPS alone; GGPPS+truncated CDPS; or GGPPS+truncated CDPS+KS5) or plasmids without gene insertions was observed. GGPP production, and especially CDP production, was toxic to S. cerevisiae when produced as end products.

Data set [2] concerns Stevia rebaudiana kaurene oxidase. Nature of the data set: Ent-kaurenoic acid accumulation in EFSC2386 with different CPRs (activation of KO1). To be noted: LC-MS peak area; with KO-1 in EFSC2386. The data set is classed as cell-based, S. cerevisiae. The text has this: The CEN.PK S. Cerevisiae EFSC2386 strain and the CPRs referred to in this Example are described in the Example 11 (“Identification of S. rebaudiana KAH”). EFSC2386 contained the following integrated genes: Aspergillus nidulans Geranyl geranyl pyrophosphate synthase (GGPPS); Zea mays ent-copalyl diphosphate synthase (CDPS); Stevia rebaudiana ent-kaurene synthase (KS); and Stevia rebaudiana ent-kaurene oxidase (KO). This strain produces ent-kaurenoic acid that was detected by LC-MS analysis.
Sequence of Stevia rebaudiana kaurene oxidase (as listed by the source): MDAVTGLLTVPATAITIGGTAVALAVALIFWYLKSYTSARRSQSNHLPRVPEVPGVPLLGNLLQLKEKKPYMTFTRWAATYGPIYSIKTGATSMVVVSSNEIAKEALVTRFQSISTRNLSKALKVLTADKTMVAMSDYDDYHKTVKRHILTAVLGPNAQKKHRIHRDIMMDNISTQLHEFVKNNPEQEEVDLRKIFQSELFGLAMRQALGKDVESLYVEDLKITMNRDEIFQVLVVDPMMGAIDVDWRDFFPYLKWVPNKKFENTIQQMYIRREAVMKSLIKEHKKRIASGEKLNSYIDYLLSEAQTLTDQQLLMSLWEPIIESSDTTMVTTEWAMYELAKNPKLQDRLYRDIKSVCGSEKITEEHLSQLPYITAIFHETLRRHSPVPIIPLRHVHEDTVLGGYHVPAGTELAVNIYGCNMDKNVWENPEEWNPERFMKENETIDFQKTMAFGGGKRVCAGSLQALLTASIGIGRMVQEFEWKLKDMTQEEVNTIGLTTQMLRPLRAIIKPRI
A collection of cytochrome P450 reductases (CPRs) were expressed and tested in strain EFSC2386; “CPR1” (S. rebaudiana NADPH dependent cytochrome P450 reductase, Kumar et al., Accession no. DQ269454); “ATR1” (A. thaliana CPR, Accession No. CAA23011); “ATR2” (A. thaliana CPR, Accession No. CAA46815); “CPR7” (S. rebaudiana CPR, CPR7 is similar to “CPR1”); “CPR8” (S. rebaudiana CPR, similar to Artemisia annua CPR; and “CPR4” (S. cerevisiae NCP1, Accession No. YHR042W).
Overexpression of the S. cerevisiae endogenous native CPR (referred to as CPR4 in Table 14), and especially overexpression of one of the A. thaliana CPRs namely ATR2, gives good activation of the Stevia rebaudiana kaurene oxidase (the latter called KO1 in Table 14) and results in increased accumulation of ent-kaurenoic acid. See Table 14, which presents the area under curve (AUC) of the ent-kaurenoic acid peak in the LC-MS chromatograms. KO1 is an ent-kaurenoic acid producing yeast control strain without additional overexpression of CPRs.

The nature of data set [3]: RebA solubility in water. The data set is classed as physicochemical. The protocol: The solubility of RebA determines the concentration that can be used both for the whole-cell approach and for the cell-free approach. Several different solutions of RebA in water were made and left at room temperature for several days. After 24 hours of storage, RebA precipitated at concentrations of 50 mM or higher. Twenty-five mM RebA started to precipitate after 4-5 days, while 10 mM or lower concentrations remained in solution, even when stored at 4° C.

The subject of data set [4] is S. cerevisiae strain BY4741. As to the kind of experiment: Steviol-feeding experiment of S. cerevisiae strain BY4741. It is filed as cell-based. On the procedure:
Further experiments were conducted to determine if the codon-optimized UGT85C2 could reduce 19-SMG accumulation and increase rubusoside and higher glycosylated steviol glycosides production. The production of 19-SMG and rubusoside were analysed in a steviol-feeding experiment of S. cerevisiae strain BY4741 expressing the wild type UGT74G1 as well as the codon-optimized UGT85C2 from high copy (2p) vectors under strong constitutive promoter (GPD1) (vectors P426-GPD and P423-GPD, respectively). Whole culture samples (without cell removal) were taken and boiled in an equal volume of DMSO for total glycosides levels. Intracellular concentrations reported were obtained by pelleting cells, and resuspending in 50% DMSO to the volume of the original culture sample taken, followed by boiling. The “total” glycosides level and the normalized intracellular level then were measured using LC-MS. Using wild type UGT74G1 and wild type UGT85C2, approximately 13.5 μM rubusoside was produced in total with a maximum normalized intracellular concentration of about 7 μM. In contrast, when wild type UGT74G1 and codon-optimized UGT85C2 were used, a maximum of 26 μM rubusoside was produced, or approximately double of what was produced using the wild type UGT85C2. Additionally, the maximum normalized intracellular concentration of rubusoside was 13 μM, again an approximate doubling of what was produced using wild type UGT85C2. […] Consequently, about 10 μM less total 19-SMG was measured for the codon-optimized UGT85C2.

Where [5] appears, read: co-expressed with wild type UGT74G1, steviol feeding.

For `CC(C)=CCC/C(C)=C/CC/C(C)=C/CC/C(C)=C/COP(=O)(O)OP(=O)(O)O` [GGPP, geranyl geranyl pyrophosphate], in data set [1], the “toxicity to S. cerevisiae when produced as end product” value (“toxicity to S. cerevisiae” for short) is given as “toxic”.
With “CPR-8: S. rebaudiana CPR, similar to Artemisia annua CPR”, the “Ent-Kaurenoic Acid (AUC)” value in data set [2] worked out at 12590 AUC.
As to `C=C1CC[C@@H]2C(C)(C)CCC[C@@]2(C)[C@@H]1CC/C(C)=C/COP(=O)(O)OP(=O)(O)O` [CDP, ent-copalyl diphosphate], in data set [1], the “toxicity to S. cerevisiae” value was “toxic”.
For “ATR-2: A. thaliana CPR, Accession No. CAA46815”, in data set [2], the “Ent-Kaurenoic Acid (AUC)” value is on record as 29412 AUC.
Turning to `C=C1C[C@@]23CC[C@H]4[C@@](C)(CCC[C@@]4(C)C(=O)O[C@@H]4O[C@H](CO)[C@@H](O)[C@H](O)[C@H]4O)[C@@H]2CC[C@]1(O[C@@H]1O[C@H](CO)[C@@H](O)[C@H](O[C@@H]2O[C@H](CO)[C@@H](O)[C@H](O)[C@H]2O)[C@H]1O[C@@H]1O[C@H](CO)[C@@H](O)[C@H](O)[C@H]1O)C3` [RebA, Rebaudioside A], in data set [3] (Twenty-five mM RebA in water), the “time until precipitation started” value fell in the range of 4 to 5 days. Also, in data set [3] (water, room temperature, after 24 hours of storage), the “concentration at which RebA precipitated” value is ≥ 50000 µM. Further, the “concentration that remained in solution” value in data set [3] (water, several days, even when stored at 4° C.) was ≥ 10000 µM.
On to `C=C1C[C@@]23CC[C@@H]4C(C)(C)CCC[C@@]4(C)[C@@H]2CC[C@@H]1C3` [ent-kaurene], for which the “toxicity to S. cerevisiae” value in data set [1] was “not be toxic”.
For the molecule “CPR-1: S. rebaudiana NADPH dependent cytochrome P450 reductase, Accession no. DQ269454”, the “Ent-Kaurenoic Acid (AUC)” value in data set [2] came out at 14113 AUC.

B1: codon-optimized UGT85C2: UGT85C2 expressed from the GeneArt codon-optimized sequence; amino acid sequence unchanged (protein, UniProt Q6VAB0 1-481, looked up)
UDP-glycosyltransferase 85C2: MDAMATTEKKPHVIFIPFPAQSHIKAMLKLAQLLHHKGLQITFVNTDFIHNQFLESSGPHCLDGAPGFRFETIPDGVSHSPEASIPIRESLLRSIETNFLDRFIDLVTKLPDPPTCIISDGFLSVFTIDAAKKLGIPVMMYWTLAACGFMGFYHIHSLIEKGFAPLKDASYLTNGYLDTVIDWVPGMEGIRLKDFPLDWSTDLNDKVLMFTTEAPQRSHKVSHHIFHTFDELEPSIIKTLSLRYNHIYTIGPLQLLLDQIPEEKKQTGITSLHGYSLVKEEPECFQWLQSKEPNSVVYVNFGSTTVMSLEDMTEFGWGLANSNHYFLWIIRSNLVIGENAVLPPELEEHIKKRGFIASWCSQEKVLKHPSVGGFLTHCGWGSTIESLSAGVPMICWPYSWDQLTNCRYICKEWEVGLEMGTKVKRDEVKRLVQELMGEGGHKMRNKAKDWKEKARIAIAPNGSSSLNIDKMVKEITVLARN
As to B1, in data set [4], the “less total 19-SMG than with wild type UGT85C2” value is “about 10 μM”. Also, in data set [4] (setting [5]), the “maximum intracellular concentration of 19-SMG” value came to 19 µM, the “maximum normalized intracellular concentration of rubusoside” value turned out to be 13 µM and the “rubusoside produced in total” value worked out at 26 µM.

B2: CPR-4: S. cerevisiae NCP1, Accession No. YHR042W (protein, UniProt P16603 2-691, looked up)
NADPH--cytochrome P450 …: PFGIDNTDFTVLAGLVLAVLLYVKRNSIKELLMSDDGDITAVSSGNRDIAQVVTENNKNYLVLYASQTGTAEDYAKKFSKELVAKFNLNVMCADVENYDFESLNDVPVIVSIFISTYGEGDFPDGAVNFEDFICNAEAGALSNLRYNMFGLGNSTYEFFNGAAKKAEKHLSAAGAIRLGKLGEADDGAGTTDEDYMAWKDSILEVLKDELHLDEQEAKFTSQFQYTVLNEITDSMSLGEPSAHYLPSHQLNRNADGIQLGPFDLSQPYIAPIVKSRELFSSNDRNCIHSEFDLSGSNIKYSTGDHLAVWPSNPLEKVEQFLSIFNLDPETIFDLKPLDPTVKVPFPTPTTIGAAIKHYLEITGPVSRQLFSSLIQFAPNADVKEKLTLLSKDKDQFAVEITSKYFNIADALKYLSDGAKWDTVPMQFLVESVPQMTPRYYSISSSSLSEKQTVHVTSIVENFPNPELPDAPPVVGVTTNLLRNIQLAQNNVNIAETNLPVHYDLNGPRKLFANYKLPVHVRRSNFRLPSNPSTPVIMIGPGTGVAPFRGFIRERVAFLESQKKGGNNVSLGKHILFYGSRNTDDFLYQDEWPEYAKKLDGSFEMVVAHSRLPNTKKVYVQDKLKDYEDQVFEMINNGAFIYVCGDAKGMAKGVSTALVGILSRGKSITTDEATELIKMLKTSGRYQEDVW
In the case of B2, the “Ent-Kaurenoic Acid (AUC)” value in data set [2] is on record as 25103 AUC.
